From patent US11390604B2 (Hoffmann-La Roche Inc., priority 2019, dated 2022) come the findings set out here.

Counter-ions that a name gives are not always drawn.

For orientation: IC90 means the point of the concentration-response curve where the effect stands at 90%.

The subject of this assay is Acinetobacter baumannii ATCC 17961. Description: Antimicrobial susceptibility testing: 90% growth inhibitory concentration (IC90) determination. In kind it is cell-based. As to conditions: ATCC17961, Acinetobacter baumannii ATCC 17961, Iso-Sensitest broth, read-out: ATCC 17961 IC90. The protocol:
Antimicrobial Susceptibility Testing:
90% Growth Inhibitory Concentration (IC90) Determination
The in vitro antimicrobial activity of the compounds was determined according to the following procedure:
The assay used a 10-points Iso-Sensitest broth medium to measure quantitatively the in vitro activity of the compounds against Acinetobacter baumannii ATCC 17961.
Stock compounds in DMSO were serially twofold diluted (e.g. range from 50 to 0.097 μM final concentration) in 384 wells microtiter plates and inoculated with 49 μl the bacterial suspension in Iso-Sensitest medium to have a final cell concentration of ˜5×10^(5) CFU/ml in a final volume/well of 50 ul/well. Microtiter plates were incubated at 35±2° C.
Bacterial cell growth was determined with the measurement of optical density at X=600 nm each 20 minutes over a time course of 16 h. Growth inhibition was calculated during the logarithmic growth of the bacterial cells with determination of the concentration inhibiting 50% (IC50) and 90% (IC90) of the growth.
Table 1 provides the 90% growth inhibitory concentrations (IC90) in micromoles per liter of the compounds of present disclosure obtained against the strain Acinetobacter baumannii ATCC 17961.

As for `Cn1c(-c2cn(C3CC3)nc2C(F)(F)F)cnc1C(=O)Nc1ccc(C(=O)N2CCN(C(=O)NC3CNC3)CC2)c(Cl)c1` [Example 233, N-(azetidin-3-yl)-4-[2-chloro-4-[[5-[1-cyclopropyl-3-(trifluoromethyl)pyrazol-4-yl]-1-methyl-imidazole-2-carbonyl]amino]benzoyl]pipera-zine-1-carboxamide; formic acid], the IC90 worked out at 267 nM.

Turning to `Cn1c(-c2cn(CC3CCC3)nc2C(F)(F)F)cnc1C(=O)Nc1ccc(C(=O)N2CCN(C(=O)C3CCNCC3)CC2)c(Cl)c1` [Example 113, N-[3-chloro-4-[4-(piperidine-4-carbonyl)piperazine-1-carbonyl]phenyl]-5-[1-(cyclobutylmethyl)-3-(trifluoromethyl)pyrazol-4-yl]-1-methylimidazole-2-carboxamide;hydrochloride], the IC90 is 187 nM.

In the case of `Cn1c(-c2cn(C3CC3)nc2C(F)(F)F)cnc1C(=O)Nc1ccc(C(=O)N2CCN(C(=O)C[C@H]3CCNC3)CC2)c(Cl)c1` [Example 246, (R)-N-(3-chloro-4-(4-(2-(pyrrolidin-3-yl)acetyl)piperazine-1-carbonyl)phenyl)-5-(1-cyclopropyl-3-(trifluoromethyl)-1H-pyrazol-4-yl)-1-methyl-1H-imidazole-2-carboxamide hydrochloride], the IC90 worked out at 293 nM.

As to `CCc1cc(NC(=O)c2ncc(-c3cn(Cc4cccnc4)nc3C(F)(F)F)n2C)ccc1C(=O)N1CCN(C(=O)[C@@H]2CCNC2)CC1` [Example 161, N-[3-ethyl-4-[4-[(3R)-pyrrolidine-3-carbonyl]piperazine-1-carbonyl]phenyl]-1-methyl-5-[1-(pyridin-3-ylmethyl)-3-(trifluoromethyl)pyrazol-4-yl]imidazole-2-carboxamide;formic acid], the IC90 turned out to be 1280 nM.

`COC1CN(C(=O)N[C@H]2CNC[C@@H]2O)CC1NC(=O)c1ccc(NC(=O)c2ncc(-c3cn(C4CC4(F)F)nc3C(F)(F)F)n2C)cc1Cl` (mixture of isomers) [Example 350, rac-N-(3-chloro-4-((trans-1-(((3R,4R)-4-hydroxypyrrolidin-3-yl)carbamoyl)-4-methoxypyrrolidin-3-yl)carbamoyl)phenyl)-5-(1-(2,2-difluorocyclopropyl)-3-(trifluoromethyl)-1H-pyrazol-4-yl)-1-methyl-1H-imidazole-2-carboxamide formate]: the IC90 came to 450 nM.

On to `Cn1c(-c2cn(C(CO)CCl)nc2C(F)(F)F)cnc1C(=O)Nc1ccc(C(=O)N2CCN(C(=O)C3CCNCC3)CC2)c(Cl)c1` (centres unmarked) [Example 103, 5-[1-(1-chloro-3-hydroxypropan-2-yl)-3-(trifluoromethyl)pyrazol-4-yl]-N-[3-chloro-4-[4-(piperidine-4-carbonyl)piperazine-1-carbonyl]phenyl]-1-methylimidazole-2-carboxamide;hydrochloride], for which the concentration for an effect of 90% (IC90) stood at 678 nM.

For `Cn1c(-c2cn(C3CC3)nc2C(F)(F)F)cnc1C(=O)Nc1ccc(C(=O)N2CCN(C(=O)C3CNCCC3O)CC2)c(Cl)c1` (centres unmarked) [Example 311, N-[3-chloro-4-[4-(4-hydroxypiperidine-3-carbonyl)piperazine-1-carbonyl]phenyl]-5-[1-cyclopropyl-3-(trifluoromethyl)pyrazol-4-yl]-1-methylimidazole-2-carboxamide;hydrochloride], the concentration for an effect of 90% (IC90) came to 382 nM.

`CN1CCC(C(=O)N2CCN(C(=O)c3ccc(NC(=O)c4ncc(-c5c[nH]nc5C(F)(F)F)n4C)cc3Cl)CC2)CC1` [Example 14, N-[3-chloro-4-[4-(1-methylpiperidine-4-carbonyl)piperazine-1-carbonyl]phenyl]-1-methyl-5-[3-(trifluoromethyl)-1H-pyrazol-4-yl]imidazole-2-carboxamide]: the 90% effect concentration (IC90) turned out to be 516 nM.

Consider `Cn1c(-c2cn(CC=C(F)F)nc2C(F)(F)F)cnc1C(=O)Nc1ccc(C(=O)N[C@H]2C[C@@H](N)C2)c(Cl)c1` [Example 307, rac-N-(4-(((1s,3s)-3-aminocyclobutyl)carbamoyl)-3-chlorophenyl)-5-(1-(3,3-difluoroallyl)-3-(trifluoromethyl)-1H-pyrazol-4-yl)-1-methyl-1H-imidazole-2-carboxamide 2,2,2-trifluoroacetate], for which the 90% effect concentration (IC90) was found to be 375 nM.

Consider `Cn1c(-c2cn(CC(F)F)nc2C(F)(F)F)cnc1C(=O)Nc1ccc(S(=O)(=O)N2CCN(C(=O)N[C@@H]3CNC[C@H]3O)CC2)cc1` (racemic) [Example 279, rac-4-((4-(5-(1-(2,2-difluoroethyl)-3-(trifluoromethyl)-1H-pyrazol-4-yl)-1-methyl-1H-imidazole-2-carboxamido)phenyl)sulfonyl)-N-((3R,4R)-4-hydroxypyrrolidin-3-yl)piperazine-1-carboxamide formate], for which the concentration for an effect of 90% (IC90) was 344 nM.

Consider `Cn1c(-c2cn(CCF)nc2C(F)(F)F)cnc1C(=O)Nc1ccc(C(=O)N2CCN(C(=O)NC3CNC3)CC2)c(Cl)c1` [Example 144, N-(azetidin-3-yl)-4-[2-chloro-4-[[5-[1-(2-fluoroethyl)-3-(trifluoromethyl)pyrazol-4-yl]-1-methylimidazole-2-carbonyl]amino]benzoyl]piperazine-1-carboxamide;formic acid], for which the IC90 amounted to 621 nM.

As for `CC1CN(C(=O)N[C@H]2C[C@@H](NC(=O)c3ccc(NC(=O)c4ncc(-c5cn(CC#N)nc5C(F)(F)F)n4C)cc3Cl)C2)CCN1` (some centres unmarked) [Example 354, N-[3-[[2-chloro-4-[[5-[1-(cyanomethyl)-3-(trifluoromethyl)pyrazol-4-yl]-1-methyl-imidazole-2-carbonyl]amino]benzoyl]amino]cyclobutyl]-3-methyl-piperazine-1-carboxamide; formic acid], the IC90 was 463 nM.

Turning to `C#CCn1cc(-c2cnc(C(=O)Nc3ccc(C(=O)N4CCN(C(=O)[C@@H]5C[C@@H](O)CN5)CC4)c(Cl)c3)n2C)c(C(F)(F)F)n1` [Example 36, N-[3-Chloro-4-[4-[(2S,4R)-4-hydroxypyrrolidine-2-carbonyl]piperazine-1-carbonyl]phenyl]-1-methyl-5-[1-prop-2-ynyl-3-(trifluoromethyl)pyrazol-4-yl]imidazole-2-carboxamide hydrochloride], the concentration for an effect of 90% (IC90) was found to be 286 nM.

As for `Cn1c(-c2cn(C3CC3)nc2C(F)(F)F)cnc1C(=O)Nc1ccc(C(=O)N2CCN(C(=O)N3CC[C@@H](N)C3)CC2)c(Cl)c1` [Example 349, (R)-N-(4-(4-(3-aminopyrrolidine-1-carbonyl)piperazine-1-carbonyl)-3-chlorophenyl)-5-(1-cyclopropyl-3-(trifluoromethyl)-1H-pyrazol-4-yl)-1-methyl-1H-imidazole-2-carboxamide formate], the IC90 was 449 nM.

For `Cn1c(-c2cn(Cc3ccn[nH]3)nc2C(F)(F)F)cnc1C(=O)Nc1ccc(C(=O)N2CCN(C(=O)C3CCNCC3)CC2)c(Cl)c1` [Example 100, N-[3-chloro-4-[4-(piperidine-4-carbonyl)piperazine-1-carbonyl]phenyl]-1-methyl-5-[1-(1H-pyrazol-5-ylmethyl)-3-(trifluoromethyl)pyrazol-4-yl]imidazole-2-carboxamide], the concentration for an effect of 90% (IC90) was determined as 1030 nM.

On to `C[C@H](N)C(=O)N[C@H]1CC[C@@H](NC(=O)c2ccc(NC(=O)c3ncc(-c4cn(CC#N)nc4C(F)(F)F)n3C)cc2Cl)CC1` [Example 324, N-[4-[[4-[[(2S)-2-aminopropanoyl]amino]cyclo-hexyl]carbamoyl]-3-chlorophenyl]-5-[1-(cyanomethyl)-3-(trifluoromethyl)pyrazol-4-yl]-1-methylimidazole-2-carboxamide;2,2,2-trifluoroacetic acid], for which the IC90 amounted to 408 nM.

Turning to `CCc1cc(NC(=O)c2ncc(-c3cn(CC(F)F)nc3C(F)(F)F)n2C)ccc1C(=O)N1CCN(C(=O)NCC2(O)CNC2)CC1` [Example 157, 4-[4-[[5-[1-(2,2-difluoroethyl)-3-(trifluoromethyl)pyrazol-4-yl]-1-methylimidazole-2-carbonyl]amino]-2-ethylbenzoyl]-N-[(3-hydroxyazetidin-3-yl)methyl]piperazine-1-carboxamide;formic acid], the concentration for an effect of 90% (IC90) was found to be 1000 nM.

On to `C#CCn1cc(-c2cnc(C(=O)Nc3ccc(C(=O)N4CCN(C(=O)N[C@H]5C[C@@H](N)C5)CC4)c(Cl)c3)n2C)c(C(F)(F)F)n1` [Example 78, N-(3-aminocyclobutyl)-4-[2-chloro-4-[[1-methyl-5-[1-prop-2-ynyl-3-(trifluoromethyl)pyrazol-4-yl]imidazole-2-carbonyl]amino]benzoyl]piperazine-1-carboxamide], for which the IC90 was determined as 109 nM.

Consider `Cn1c(-c2cn(C3CC3)nc2C(F)(F)F)cnc1C(=O)Nc1ccc(C(=O)N2CCN(C(=O)C3CNC3)CC2)c(Cl)c1` [Example 224, N-(4-(4-(azetidine-3-carbonyl)piperazine-1-carbonyl)-3-chlorophenyl)-5-(1-cyclopropyl-3-(trifluoromethyl)-1H-pyrazol-4-yl)-1-methyl-1H-imidazole-2-carboxamide hydrochloride], for which the IC90 was determined as 256 nM.

Consider `C#CCn1cc(-c2cnc(C(=O)Nc3ccc(C(=O)NC[C@@H]4CCNC4)c(Cl)c3)n2C)c(C(F)(F)F)n1` [Example 31, (R)—N-(3-Chloro-4-((pyrrolidin-3-ylmethyl)carbamoyl)phenyl)-1-methyl-5-(1-(prop-2-yn-1-yl)-3-(trifluoromethyl)-1H-pyrazol-4-yl)-1H-imidazole-2-carboxamide hydrochloride], for which the IC90 came out at 962 nM.
